# Experimental data taken from US7091207B2, “Method of treating myocardial infarction with PDE-5 inhibitors” (Virginia Commonwealth University, priority 2002, dated 2006).
# Several values for one entry are separate records, joined by “and”; a condition that tells them apart may be missing. Equal values may be shown once.
# Assays:
# [1] = system: neonatal mouse cardiac myocytes; assay type: cell-based; conditions: DOX 0.5–5 μM with 1 μM sildenafil
# Procedure: Neonatal mouse myocytes in culture are incubated with 0.5–5 μM of DOX (in the presence or absence of 1 μM sildenafil) for 18 hours. The cells are then incubated with drug free growth medium for an additional 24 hours. Cytotoxicity of DOX is quantitatively assessed by measuring the percentage of cells killed and the amount of creatine kinase (CK) released into the media. In addition, a trypan blue exclusion assay and propidium iodide nuclear stain are used to quantitate cell death. Since DOX induces cardiomyopathy through the release of reactive oxygen species, lipid peroxidation in the cells is also measured as an index of oxidative damage.
# Neonatal mouse cardiac myocyte cultures are used for membrane potential studies. Cells in culture are treated with 0.5–5 μM of DOX (in the presence or absence of 1 μM sildenafil) for 18 hours. The cells are then incubated with drug free growth medium for an additional 24 hours. Additional groups are included where the cells are treated with a mitoKATP channel blocker (5-hydroxydecanoate, 100 μM), surface channel blocker (HMR1098, 30 μM) or cyclosporine, a mitochondrial membrane potential (Ψm) blocker (5 μM). For assessment of apoptosis, the TUNEL assay is used, which is an accurate method for distinguishing apoptosis from necrosis by specifically detecting DNA cleavage and chromatin condensation characteristic of apoptosis. Additionally, positive TUNEL staining directly correlates with the more typical biochemical and morphological aspects of apoptosis. Since an understanding of cell morphology is critical for data interpretation, apoptotic morphology is simultaneously assessed according to accepted scientific criteria previously described (Nor-Avi, 1999). The in situ staining of DNA strand breaks detected by the TUNEL assay along with subsequent morphological observation via epifluorescent, confocal, and electron microscopy, provides significant and reliable data regarding the identification of apoptotic cells, even in tissue samples where apoptosis represents a small segment of the population (Manning 1994). In addition, several other key indicators of apoptosis including annexin-V, cytosolic cytochrome c, caspase 3, caspase 8, as well as poly (ADP-ribose) polymerase cleavage in these groups, are measured. Mitochondrial membrane potential (Ψm) using a fluorescent indicator probe, JC-1 (Molecular Probes, Eugene, Oreg.) is measured.
# [2] = system: eNOS; assay: Cardiac eNOS mRNA (RT-PCR) and protein (Western blot) expression after treatment; assay type: in vivo, mouse; conditions: 0.7 mg/kg IP
# Procedure: Adult male outbred ICR mice were supplied by Harlan Inc (Indianapolis, Ind.). Viagra pills (Pfizer Inc) were ground into powder and dissolved in saline. The drug solution was filtered (0.45-μm pore size) before intraperitoneal injection. 1400W, an iNOS inhibitor, was obtained from Alexis. We used an isolated perfused mouse heart model subjected to 20 minutes of global ischemia and 30 minutes of reperfusion (Langendorff mode). Myocardial I-R injury was assessed by measuring infarct size, contractile function, and coronary flow as described previously (Xi, 1999). Twenty-eight mice were randomized into the following 4 groups: (n=6 to 9 per group): (1) saline (0.15 mL IP), (2) sildenafil (0.7 mg/kg IP, equivalent to 50 mg Viagra pill used for patients with erectile dysfunction, given 24 hours before I-R), (3) sildenafil+1400W (10 mg/kg IP, 14 given 30 minutes before I-R), and (4) saline+1400W. Measurement of NOS Isoforms Mice were treated with sildenafil (0.7 mg/kg IP), and their hearts were removed at 15, 30, and 45 minutes and 1, 2, 3, 4, and 24 hours after injection (n=3 per group). […] The target bands were identified on the basis of their specific size using DNA standards. iNOS and eNOS proteins were measured by Western blots as described previously. […] The mRNA and protein expression were quantified by scanning each of the RT-PCR or Western blot band using a densitometer (Bioquant 98). […]
# [3] = system: mouse heart, global I-R injury; assay: Isolated perfused mouse heart (Langendorff), 20 min global ischemia and 30 min reperfusion after in vivo treatment
# Procedure: Adult male outbred ICR mice were supplied by Harlan Inc (Indianapolis, Ind.). Viagra pills (Pfizer Inc) were ground into powder and dissolved in saline. The drug solution was filtered (0.45-μm pore size) before intraperitoneal injection. 1400W, an iNOS inhibitor, was obtained from Alexis. We used an isolated perfused mouse heart model subjected to 20 minutes of global ischemia and 30 minutes of reperfusion (Langendorff mode). Myocardial I-R injury was assessed by measuring infarct size, contractile function, and coronary flow as described previously (Xi, 1999). Twenty-eight mice were randomized into the following 4 groups: (n=6 to 9 per group): (1) saline (0.15 mL IP), (2) sildenafil (0.7 mg/kg IP, equivalent to 50 mg Viagra pill used for patients with erectile dysfunction, given 24 hours before I-R), (3) sildenafil+1400W (10 mg/kg IP, 14 given 30 minutes before I-R), and (4) saline+1400W. Measurement of NOS Isoforms Mice were treated with sildenafil (0.7 mg/kg IP), and their hearts were removed at 15, 30, and 45 minutes and 1, 2, 3, 4, and 24 hours after injection (n=3 per group). Three nontreated hearts were used as controls. Tissue samples were ground under liquid nitrogen and homogenized with TRI Reagent (Molecular Research Center) for extracting total RNA, which was reverse-transcribed into cDNA at 50° C. for 30 minutes using a OneStep reverse transcription (RT)-polymerase chain reaction (PCR) kit from Qiagen. The oligonucleotide primers were synthesized on the basis of published sequences for murine iNOS, eNOS, and GAPDH15 (Integrated DNA Technology). The RT-PCR products were electrophoresed on 1.5% Trisacetate-EDTA agarose gel. The target bands were identified on the basis of their specific size using DNA standards. iNOS and eNOS proteins were measured by Western blots as described previously. 13 In brief, triplicate heart samples were collected 24 hours after saline or sildenafil injection and homogenized in ice-cold RIPA buffer (Upstate Biotechnology). The homogenate was centrifuged at 10,000 g for 10 minutes at 4° C., and supernatant was recovered as the total cellular protein. Total protein (60 μg) from each sample was separated by SDS-PAGE on 10% acrylamide gels, transferred to a polyvinylidine difluoride membrane, and then blocked with 5% nonfat dry milk in Tris-buffered saline. The membrane was subsequently incubated with a rabbit polyclonal antibody (dilution 1:500, Santa Cruz) reacting specifically to iNOS, eNOS, or actin. The secondary antibody was a horseradish peroxidase-conjugated anti-rabbit IgG (1:1000 dilution, Amersham). The membranes were developed using enhanced chemiluminescence and exposed to x-ray film. The mRNA and protein expression were quantified by scanning each of the RT-PCR or Western blot band using a densitometer (Bioquant 98). […]
# [4] = system: rabbit heart, ischemia/reperfusion injury; assay: In situ rabbit model of myocardial infarction (30 min coronary occlusion, 180 min reperfusion), infarct size by TTC staining; assay type: in vivo; conditions: for reduction of infarct size vs saline control: 0.7 mg/kg IV
# [5] = system: iNOS; assay: Cardiac iNOS mRNA (RT-PCR) and protein (Western blot) expression after treatment; assay type: in vivo, mouse; conditions: 0.7 mg/kg IP
# Procedure: Adult male outbred ICR mice were supplied by Harlan Inc (Indianapolis, Ind.). Viagra pills (Pfizer Inc) were ground into powder and dissolved in saline. The drug solution was filtered (0.45-μm pore size) before intraperitoneal injection. 1400W, an iNOS inhibitor, was obtained from Alexis. We used an isolated perfused mouse heart model subjected to 20 minutes of global ischemia and 30 minutes of reperfusion (Langendorff mode). Myocardial I-R injury was assessed by measuring infarct size, contractile function, and coronary flow as described previously (Xi, 1999). Twenty-eight mice were randomized into the following 4 groups: (n=6 to 9 per group): (1) saline (0.15 mL IP), (2) sildenafil (0.7 mg/kg IP, equivalent to 50 mg Viagra pill used for patients with erectile dysfunction, given 24 hours before I-R), (3) sildenafil+1400W (10 mg/kg IP, 14 given 30 minutes before I-R), and (4) saline+1400W. Measurement of NOS Isoforms Mice were treated with sildenafil (0.7 mg/kg IP), and their hearts were removed at 15, 30, and 45 minutes and 1, 2, 3, 4, and 24 hours after injection (n=3 per group). Three nontreated hearts were used as controls. Tissue samples were ground under liquid nitrogen and homogenized with TRI Reagent (Molecular Research Center) for extracting total RNA, which was reverse-transcribed into cDNA at 50° C. for 30 minutes using a OneStep reverse transcription (RT)-polymerase chain reaction (PCR) kit from Qiagen. The oligonucleotide primers were synthesized on the basis of published sequences for murine iNOS, eNOS, and GAPDH15 (Integrated DNA Technology). The RT-PCR products were electrophoresed on 1.5% Trisacetate-EDTA agarose gel. The target bands were identified on the basis of their specific size using DNA standards. iNOS and eNOS proteins were measured by Western blots as described previously. […] The mRNA and protein expression were quantified by scanning each of the RT-PCR or Western blot band using a densitometer (Bioquant 98). […]
# [6] = 0.7 mg/kg IP 24 hours before I-R
smiles,measurement,setting,value
CCCc1nn(C)c2c(=O)[nH]c(-c3cc(S(=O)(=O)N4CCN(C)CC4)ccc3OCC)nc12 [sildenafil],effect on DOX-induced apoptosis indicators,[1],aborted
same,"effect on DOX-induced parameters of injury (CK release, trypan blue uptake, lipid hydroperoxides)",[1],reversed
same,eNOS mRNA and protein expression,[2],increase
same,time of peak eNOS mRNA level,[2],45 min
same,preischemic or postischemic coronary flow,[3]; [6],did not alter
same,ventricular contractile function (stunning),[3]; [6],not associated with compromised ventricular contractile function
same,infarct size,[3]; sildenafil 0.7 mg/kg IP 24 hours before I-R,6.9±1.2%
same,infarct size,"[4]; 0.1 mg/kg, 30 minutes prior to ischemia",17.05%
same,infarct size,"[4]; 0.2 mg/kg, 30 minutes prior to ischemia",13.53±1.24
same,infarct limiting effect at lower doses (0.2 and 0.1 mg/kg) versus the 0.7 mg/kg dose,[4]; 30 minutes prior to ischemia,comparable
same,reduction of infarct size vs saline control,"[4]; acute phase, 0.7 mg/kg",68% and 67%
same,infarct size,[4]; acute phase: sildenafil 0.7 mg/kg IV 30 min prior to ischemia/reperfusion,10.8±0.9 % of risk area
same,reduction of infarct size vs saline control,[4]; delayed phase,41%
same,infarct size,[4]; delayed phase: sildenafil 0.7 mg/kg IV 24 hrs prior to ischemia/reperfusion,19.9±2.0 % of risk area
same,infarct size,"[4]; total dose 0.7 mg/kg infused from 25 min of ischemia into reperfusion for 1 hr, 0.7 mg/kg",18.37±2.42
same,infarct size,"[4]; total dose 0.7 mg/kg infused from 25 min of ischemia into reperfusion for 1 hr, listed as Sildenafil, 0.7 mg/kg",significant reduction in the infarct size
same,iNOS mRNA and protein expression,[5],increase
same,"magnitude of increase, iNOS compared with eNOS",[5],much higher for iNOS
same,time of peak iNOS mRNA level,[5],2 h
